In publication PMC6593967, “The development and prevalidation of an in vitro mutagenicity assay based on MutaMouse primary hepatocytes, Part II: Assay performance for the identification of mutagenic chemicals” (Environmental and Molecular Mutagenesis, 2019):
Where “and” joins values, the source holds several entries; their conditions need not be identical. Identical values can stand only once. Entries after “also recorded” stand apart in the source; their conditions may differ. Like-named read-outs stand apart in the source and are kept apart here.

Columns and labels:
[1] = tested on: MutaMouse FE1 lung epithelial cells; conditions: cited from earlier work
[2] = tested on: MutaMouse primary hepatocytes (PHs); assay: MutaMouse PH in vitro gene mutation assay (lacZ mutant frequency, P-Gal positive selection); conditions: for Significant MF increase over concurrent vehicle control at any concentration: Bonferroni-corrected contrasts; for Overall treatment effect on MF (Chi-squared test): P < 0.05 significant
[3] = tested on: MutaMouse primary hepatocytes (PHs); assay: Cytotoxicity by relative increase in nuclear counts (RINC), flow cytometry; assay type: cell-based, mouse
Description: Cytotoxicity was measured using the relative increase in nuclear counts (RINC) metric. […] To normalize nuclei counts, 150 μL of a suspension of 6 μm fluorescently labeled polystyrene microspheres was added to each sample of lysate. […] Each microsphere‐lysate sample was diluted 1:10 prior to flow cytometric analysis. Data were acquired using a BD Biosciences FACScalibur flow cytometer (BD Biosciences, Mississauga, Ontario) equipped with a 488 nm laser. Instrumentation settings and data acquisition were facilitated using CellQuest Pro software (BD Biosciences). Data analysis was performed using Flowing Software version 2.5.1 (Turku Centre for Biotechnology, Turku, Finland). SYTOX® green and bead fluorescence emission were captured in the FL1 channel (530/30 band‐pass filter). Events were scored as nuclei following the application of key criteria (i.e., within a side scatter (SSC) vs forward scatter (FSC) region, within a region that excludes doublets, and within an FSC vs. FL1 region).

[4] = tested on: pUR288 lacZ Plasmid Mouse PHs; conditions: cited from earlier work; for Response in pUR288 lacZ Plasmid Mouse PHs gene mutation assay: ref citations provided
tk locus = conditions: S9; PhIP: human TK6 assay; 3-NBA: tk locus in human lymphoblast lines h1A1v2 and MCL-5; ref citations provided; cited from earlier work
MutaMouse = conditions: cited from earlier work; for Relative potency in the MutaMouse gene mutation assay in vivo: ref Gocke et al., 2009, Luijten et al., 2016, Hanna, 2018, Long et al.
liver = tested on: liver; parameters: method as in Rompelberg et al., 1996a; Rompelberg et al., 1996b; conditions: ref Rompelberg et al., 1996a, 1996b; cited from earlier work
[5] = ref NTP, 1982, 1986, Kirkland et al., 2008, Fowler et al., 2012a, 2016; cited from earlier work
[6] = tested on: p53‐deficient hamster cells; conditions: ref NTP, 1982, 1986, Kirkland et al., 2008, Fowler et al., 2012a, 2016; cited from earlier work
[7] = tested on: p53‐functional human cells; conditions: ref NTP, 1982, 1986, Kirkland et al., 2008, Fowler et al., 2012a, 2016; cited from earlier work
[8] = tested on: hematopoietic tissues (e.g., the bone marrow and blood); conditions: cited from earlier work
[9] = ref White et al., 2003, Hanna, 2018
[10] = 6 h exposure, 72 h sampling, no exogenous S9
[11] = BMR 100% (twofold MF increase), PROAST covariate analysis
[12] = lower limit of 90% confidence interval of BMD100
[13] = maximum response, concentration not given
[14] = upper limit of 90% confidence interval of BMD100
[15] = at or above top concentrations tested

Compound	Response in MutaMouse FE1 gene mutation assay ([1]; S9, ref citations provided)	Response in MutaMouse PH gene mutation assay [2, 10]	BMD100, Exponential model [2, 11]	BMD100, Hill model [2, 11]	BMDL, Exponential model [2, 12]	BMDL, Hill model [2, 12]	MF fold increase over control in MutaMouse PHs [2, 13]	Relative mutagenic potency by BMD100 covariate analysis ([2]; ranking of positive chemicals)	BMDU, Exponential model [2, 14]	BMDU, Hill model [2, 14]	also measured
CC(=O)Nc1ccc2c(c1)Cc1ccccc1-2 [2‐AAF, 2‐acetylaminofluorene]	Positive (±S9)	positive responses	1.9 µg/mL	1.9 µg/mL	0.964 µg/mL	0.964 µg/mL	2.6 fold	less potent than 3‐NBA and BaP	3.96 µg/mL	3.96 µg/mL	MF fold increase in MutaMouse FE1 cells [1, 9]: ~ 1.7 fold; MF fold-increase over control ([2]; 5 μg/mL, 6 h exposure, 72 h sampling): 2.6 fold
O=C1c2ccccc2-c2ccc([N+](=O)[O-])c3cccc1c23 [3‐NBA, 3‐nitrobenzanthrone]	Positive (±S9)	positive results; also recorded: positive responses	0.15 µg/mL	0.15 µg/mL	0.0689 µg/mL	0.0689 µg/mL	3.6 fold	most potent	0.373 µg/mL	0.363 µg/mL	Cytotoxicity (RINC) in words [3, 15]: sharp increase in cytotoxicity; MF fold increase above solvent control in MutaMouse FE1 cells ([1]; ref Arlt et al., 2008): ~ five; MF fold-increase over control ([2]; 0.5 μg/mL, 6 h exposure, 72 h sampling): 8.2 fold
CC1(C)S[C@@H]2[C@H](NC(=O)[C@H](N)c3ccccc3)C(=O)N2[C@H]1C(=O)O [Ampicillin trihydrate]	–	Negative	–	–	–	–	–	–	–	–	–
CN(C)N=O [DMN, dimethylnitrosamine]	–	positive responses	7.6 µg/mL	7.6 µg/mL	3.18 µg/mL	3.18 µg/mL	14.4 fold	less potent than 3‐NBA and BaP	21.5 µg/mL	16.8 µg/mL	MF fold-increase over control ([2]; 200 μg/mL, 6 h exposure, 72 h sampling): 14.4 fold
OC[C@@H](O)[C@@H](O)[C@H](O)[C@H](O)CO [D‐Mannitol]	Negative (−S9)	Negative	–	–	–	–	–	–	–	–	Response in pUR288 lacZ Plasmid Mouse PHs gene mutation assay [4]: Negative; Response in MLA (tk locus): Negative (±S9)
CCN(N=O)C(N)=O [ENU, N‐ethyl‐N‐nitrosourea]	Positive (−S9)	Positive	76 µg/mL	76 µg/mL	36.6 µg/mL	36.6 µg/mL	4.2 fold	–	178 µg/mL	170 µg/mL	MF fold increase in pUR288 lacZ plasmid mouse PHs ([4]; ref Luijten et al., 2016): ~ 4 fold; Response in pUR288 lacZ Plasmid Mouse PHs gene mutation assay [4]: Positive; MF fold increase in MutaMouse FE1 cells ([1]; ref White et al., 2003): ~ 6 fold; Relative potency in the MutaMouse gene mutation assay in vivo (MutaMouse; liver and bone marrow): more potent than BaP; Relative potency in the MutaMouse gene mutation assay in vivo (MutaMouse; small intestine, versus BaP): of equivalent potency; MF fold-increase over control ([2]; 1,000 μg/mL, 6 h exposure, 72 h sampling): 4.2 fold
C=CCc1ccc(O)c(OC)c1 [Eugenol]	–	equivocal	–	–	–	–	–	–	–	–	Cytotoxicity (RINC) in words [3, 15]: could not be tested at higher concentrations due to cytotoxicity; also recorded: too cytotoxic to test at higher concentrations; Result in UDS assay (liver): negative results; Result in in vitro chromosome aberration test [5]: positive; Result for micronucleus [6]: positive; Result in in vitro micronucleus assay [7]: negative results; Genotoxicity result in vivo ([8]; data limited, mainly hematopoietic tissues, ref Kirkland et al., 2016): negative results in vivo; Result in in vivo MutaMouse assay (MutaMouse; liver, ref Rompelberg et al., 1996a, Rompelberg et al., 1996b): negative results; Significant MF increase over concurrent vehicle control at any concentration [2]: absence of a significant response at any concentration tested; also recorded: Neither TBHQ nor eugenol yielded a significant increase in MF; Overall treatment effect on MF (Chi-squared test) [2]: significant result for the overall treatment effect; Overall treatment effect on MF (Chi-squared test) ([2]; listed as eugenol): significant treatment effect
COc1ccc2nc3cc(Cl)ccc3c(NCCCNCCCl)c2c1.Cl.Cl [ICR 191, 6‐chloro‐9‐[3‐(2‐chloroethylamino)propylamino]‐2‐methoxyacridine dihydrochloride]	–	negative result	–	–	–	–	–	–	–	–	Significant MF increase over concurrent vehicle control at any concentration [2]: did not yield a significant increase in MF; Overall treatment effect on MF (Chi-squared test) [2]: nor was a significant treatment effect detected
Cn1c(N)nc2ncc(-c3ccccc3)cc21 [PhIP, 2‐amino‐1‐methyl‐6‐phenylimidazo[4,5‐b]pyridine]	Positive (+S9)	positive responses	2.6 µg/mL	2.6 µg/mL	1.05 µg/mL	1.05 µg/mL	3.7 fold	less potent than 3‐NBA and BaP	7.8 µg/mL	7.05 µg/mL	MF fold increase in MutaMouse FE1 cells [1, 9]: ~ 5.5 fold; MF fold-increase over control ([2]; 10 μg/mL, 6 h exposure, 72 h sampling): 3.7 fold
CC(C)(C)c1cc(O)ccc1O [TBHQ, tertiary butylhydroquinone]	–	Negative	–	–	–	–	–	–	–	–	Cytotoxicity (RINC) in words [3]: relatively high RINC obtained at the top concentration; Result in in vitro chromosome aberration test [5]: positive; Result for micronucleus [6]: positive; Result in in vitro micronucleus assay [7]: negative results; Genotoxicity result in vivo ([8]; in vivo): negative results in vivo; Significant MF increase over concurrent vehicle control at any concentration [2]: Neither TBHQ nor eugenol yielded a significant increase in MF
aflatoxin B1 [AFB1]	–	–	–	–	–	–	–	–	–	–	RINC [3]: 0.6 and 0.3; MF fold increase in MutaMouse FE1 cells [1]: ~ three; Response in MutaMouse FE1 gene mutation assay [1]: Positive (±S9); BMD100, Exponential model [2]: 0.47 µg/mL; BMD100, Hill model [2]: 0.47 µg/mL; BMDL, Exponential model [2]: 0.193 µg/mL; BMDL, Hill model [2]: 0.193 µg/mL; BMDU, Exponential model [2]: 1.47 µg/mL; BMDU, Hill model [2]: 1.47 µg/mL; MF fold increase over control in MutaMouse PHs [2]: 3.6 fold; MF fold-increase over control [2]: 3.6 fold and 2.5 fold; Relative mutagenic potency by BMD100 covariate analysis [2]: most potent; Response in MutaMouse PH gene mutation assay [2]: positive responses
